Assay results reported in US5428053A, “1-aminoacetamidopyrroles and 1-amino acetamido-2-(substituted) pyrroles and related compounds” (priority 1993, dated 1995).
Where a name gives a salt, the structure may show the parent alone. Read-outs that look alike come from different tables or passages of the source.

What was measured:
NMDA receptor = test: Stimulation of [3H]TCP binding by NMDA in extensively washed rat cortical membranes; details: glycine 1 μM added to NMDA
[1] = Enhancement of step-down passive avoidance in rats; assay type: in vivo, rat (male Sprague Dawley); details: ip, 30 min prior, 24 hrs after acquisition
Protocol: In this assay, rats step off a wooden platform and subsequently receive a low-level foot shock. After 24 hours, the rats are observed for their ability to acquire and remember a passive avoidance behavior, that is, to stay on the platform. Male Sprague Dawley rats (Charles River) weighing 275-325 g were used in the passive avoidance procedure. Following a 11/2 week acclimation to the vivarium (5 rats per cage) where food and water were available ad libitum, rats were transported to the laboratory on day 1 of testing and acclimated to the experimental area and the investigator. Rats were labeled (tails marked) and handled by the investigator, then gently placed on a wooden platform (14×10.5×3.5 cm) in the experimental chamber (30.5×25×27 cm.) The chamber is equipped with a single house light and white noise generator to mask extraneous sounds. Once the animal stepped off the platform (all 4 paws touching the grid floor where grids are equally spaced every 2 cm), it was picked up by the base of the tail and returned to the home cage and then to the vivarium. On day 2, rats were returned to the laboratory and again acclimated to the experimental area for 30 min. Rats were intraperitoneally administered vehicle or compounds 30 min. prior to testing in a dosage volume of 1 ml/kg. Then the rats were gently placed on the wooden platform and their latency (in sec.) to step-down was recorded. When all four paws touched the grid, a low level 0.28 mA electric shock was delivered for 3 sec. by means of a Coulbourn Instruments grid floor shocker. Rats were immediately removed from the experimental chamber to their home cage when the shock ceased. […] Fifteen minutes later, this procedure was repeated. Rats were then returned to the vivarium. […] The latencies of each drug group on day 3 (24 hrs. following acquisition) was compared to the latencies of the vehicle control group by the non-parametric Mann-Whitney U test.

[2] = target: T1, glycine binding site associated with the N-methyl-D-aspartate (NMDA) receptor complex (Rattus norvegicus, UniProt P35439); test: biochemical; design: species or system rat (male Wistar, cortex)
T1 construct: Cortices of male Wistar rats are dissected over ice; from tissue; host or cells: cerebral cortex of male Wistar rats, Triton X-100 treated washed membranes
Protocol: This procedure is a modification of the method described by Monahan et al.^1
1. Buffer A: 0.5M Tris maleate, pH 7.4 59.3 g Tris maleate bring to 0.5 l Adjust pH to 7.4 with 0.5M Tris base
2. Buffer B: 50 mM Tris maleate, pH 7.4 Dilute Buffer A 1:10 with distilled water, adjust pH with 50 mM Tris maleate (acid) or 50 mM Tris base.
3. […] Aliquots of 20 μl to the assay tube will give a final concentration of 10^-3 M.
4. […] Aliquots of 50 μl are added to yield a final assay concentration of 10 nM.
6. Triton-X 100, 10% (v/v). A stock solution of Triton-X 100, 10% can be prepared and stored in the refrigerator. Dilute 1.0 ml of Triton-X 100 to 10.0 ml with distilled water. On the day of the assay, the tissue homogenate (1:15 dilution) is preincubated with an aliquot of the 10% solution to give a final concentration of 0.04% (v/v).
Cortices of male Wistar rats are dissected over ice and homogenized in ice-cold 0.32M sucrose (1:15 w/v) for 30 seconds with a Tissumizer setting at 70. Three cortices are pooled for one preparation. The homogenate is centrifuged at 1,000 g for 10 minutes. The supernatant is centrifuged at 20,000 g for 20 minutes. Resuspend the pellet in 15 volumes of ice-cold distilled water (Tissumizer setting 70, 15 sec) and spin at 7,600 g for 20 minutes. Save the supernatant, swirl off the upper buffy layer of the pellet and add to the supernatant. Centrifuge the supernatant at 48,000 g for 20 minutes. Resuspend the pellet with 15 volumes of cold distilled water and centrifuge. Discard the supernatant and store the pellet at -70° C.
On the day of the assay, resuspend the pellet in 15 volumes ice-cold 50 mM Tris maleate, pH 7.4. Preincubate the homogenate with Triton-X in a final concentration of 0.04% (v/v) for 30 minutes at 37° C. with agitation. Centrifuge the suspension at 48,000 g for 20 minutes. Wash the pellet an additional 3 times by resuspension with cold buffer and centrifugation. The final pellet is resuspended in a volume 25 times the original net weight.
1. Prepare assay tubes in triplicate.
50 μl Buffer A, 0.5M Tris maleate, pH 7.4
or appropriate concentration of inhibitor
500 μl Tissue homogenate
2. Following the addition of the tissue, the tubes are incubated for 20 minutes in an ice-bath at 0°-4° C. Terminate the binding by centrifugation for 20 minutes. Return the tubes to ice. Aspirate and discard the supernatant. Carefully rinse the pellet twice with 1 ml ice-cold buffer, avoiding disruption of the pellet. Transfer the pellet to scintillation vials by vortexing the pellet with 2 ml of scintillation fluid, rinse the tubes twice with 2 ml and add an additional 4 ml of scintillation fluid.
3. […] IC50 values for the competing compound are calculated by log-probit analysis of the data.

[3] = target: T2, NMDA associated strychnine-insensitive glycine modulatory site (Rattus norvegicus, UniProt P35439); test: biochemical; design: species or system rat (male Sprague Dawley, cortical tissue); details: for EC50: 2.5 nM [3H]TCP, L-glutamic acid 10^-7 M, read-out: ENHANCEMENT OF [3H]TCP BINDING EC50
T2 construct: cortical tissue obtained from male Sprague Dawley rats; from tissue; host or cells: cortical tissue of male Sprague Dawley rats, crude synaptosomal homogenate, lysed and washed

[4] = T-maze reinforced alternation task in rats (scopolamine-induced deficit); assay type: in vivo, rat (male Wistar); details: i.p.
Protocol: Male Wistar rats (Charles River) weighing 450-700 g were used in the T-maze procedure. Rats were housed (3 rats per cage) under standard laboratory conditions in the vivarium where food and water were available ad libitum. During training and testing, animals were transported to the dimly lit test room and acclimated for 30 min. The Lafayette Instruments T-maze consisted of a start box (30×20 cm), an alley way to the choice point (30×20 cm), a choice point area (25×25 cm), and two goal areas (30×20 cm) with a shock grid (grids every 11/2 cm) serving as the floor of the maze. Each session in the maze was controlled by a microprocessor.
Initially, animals were trained to greater than 70% choice accuracy in the maze for five consecutive days each week over a two week period. Following a 10 min. habituation to the maze, training commenced. All reinforced alternation sessions consisted of ten pseudo randomly paired trials. The first trial of each pair was the forced trial where the animal was forced to go to either the left or right goal box, since only one goal box door was open. The second trial was the choice trial where both goal box doors were open and the correct response was to enter the opposite goal to that entered on the previous forced run trial.
Each trial began when the rat was placed in the start box and allowed 15 sec. to enter the appropriate goal box. […] Following a 30 sec. intertrial interval (ITI), the next trial commenced. If during the choice trial, the rat entered the incorrect goal box (same goal entered during the forced trial), the guillotine door was closed and the rat received 5 electric shocks during the first 15 sec. of the 30 sec. ITI. All choices and latencies during the 10 paired trials were recorded by the computer controlled printer.
Animals which met criteria during training ([…]) were considered trained colony animals and were tested every other week. Testing was conducted over 3 consecutive days. Control sessions for baseline responding were conducted on days 1 and 2 so that the mean percentage of correct choices for each animal to qualify for drug testing was set at ≥70% correct choices.
The next time these animals were tested, they were administered pharmacological agents i.p. (at appropriate pretreatment times) in combination with scopolamine to measure effectiveness in reversing scopolamine-induced deficits in choice accuracy.
For statistical analysis, the means of each treatment group (drug+scopolamine) were compared to the mean of both the scopolamine alone group and the control group by the Dunnett's test.

[5] = read-out: % OF MAXIMAL GLYCINE RESPONSE
[6] = read-out: % OF MAXIMAL GLYCINE RESPONSE, concentration 10 μM

| SMILES | % Change from Control (median latency to step-down) ([1]; 10 mg/kg) | % Change from Control (median latency to step-down) ([1]; 20 mg/kg) | IC50 [2] [µM] | EC50 [3] [µM] | also measured |
| --- | --- | --- | --- | --- | --- |
| NCC(=O)O [glycine] |  |  |  |  | potentiation of the maximal effect of NMDA on [3H]TCP binding (factor) (NMDA receptor): 1.7 |
| Cl.NCC(=O)Nn1cccc1Cl [2-Amino-N-(2-chloro-1H-pyrrol-1-yl)acetamide Hydrochloride] | +158% | +25% |  |  | % Change from Control (median latency to step-down) ([1]; 40 mg/kg): +133% |
| NCC(=O)Nn1cccc1C(=O)c1cccs1 [2-Amino-N-[2-(2-thienylcarbonyl)-1H-pyrrol-1-yl]acetamide Hydrochloride] |  |  | 6 | 0.38 | Emax at 10 µM [3, 5]: 78% |
| CN1[C@@H]2C[C@@H](OC(=O)[C@H](CO)c3ccccc3)C[C@H]1[C@@H]1O[C@@H]12 [Scopolamine] |  |  |  |  | choice accuracy (overall responding at chance levels) ([4]; scopolamine 1 mg/kg, 30 min pretreatment): 50%; Mean % of Correct Choice ([4]; scopolamine alone 1 mg/kg): 45% |
| Cl.NCC(=O)Nn1cccc1 [2-Amino-N-1H-pyrrol-1-ylacetamide Hydrochloride] | +281% | +625% | 14.8 | 92 | % Change from Control (median latency to step-down) ([1]; 80 mg/kg): +512%; Emax at 100 µM [3, 5]: 65% |
| COc1ccc(C(=O)c2cccn2NC(=O)CN)cc1 [2-amino-N-[2-(4-methoxybenzoyl)-1H-pyrrol-1-yl]acetamide] |  |  | 6.6 | 2 | Emax at 100 µM ([3]; read-out: % OF MAXIMAL GLYCINE RESPONSE, concentration 100 μM): 89% |
| NCC(=O)Nn1cccc1C(=O)c1ccccc1Cl [2-amino-N-[2-(2-chloro-benzoyl)-1H-pyrrol-1-yl]-acetamide hydrochloride] |  |  | 22.5 | 3 | Emax at 10 µM [3, 5]: 56% |
| NCC(=O)Nn1cccc1C(=O)c1ccccc1F [2-amino-N-[2-(2-fluorobenzoyl)-1H-pyrrol-1-yl]acetamide hydrobromide hemihydrate] | +471% | +836% | 11.2 | 3.1 | Emax at 10 µM [3, 6]: 77%; Mean % of Correct Choice ([4]; with scopolamine, 1/20 mg/kg (scopolamine/drug)): 64% |
| NCC(=O)Nn1cccc1C(=O)c1ccccc1C(F)(F)F [2-amino-N-[2-(2-trifluoro-methyl)benzoyl)-1H-pyrrol-1-yl]acetamide hydrobromide] | +77% | +122% |  |  | % Change from Control (median latency to step-down) ([1]; 5 mg/kg): +900%; % Change from Control (median latency to step-down) ([1]; 40 mg/kg): +33% |
| COc1ccccc1C(=O)c1cccn1NC(=O)CN.Cl [2-amino-N-[2-(2-methoxy-benzoyl)-1H-pyrrol-1-yl]-acetamide hydrochloride] | +37% |  |  |  | % Change from Control (median latency to step-down) ([1]; 1.25 mg/kg): +237%; % Change from Control (median latency to step-down) ([1]; 5 mg/kg): +80% |
| N[C@@H]1CONC1=O [D-cycloserine] |  |  |  |  | % Change from Control (median latency to step-down) ([1]; 5 mg/kg): +120%; Mean % of Correct Choice ([4]; with scopolamine, 1/3 mg/kg (scopolamine/drug)): 59%; Mean % of Correct Choice ([4]; with scopolamine, 1/10 mg/kg (scopolamine/drug)): 61% |
| CC(=O)c1cccn1NC(=O)CN [N-(2-Acetyl-1H-pyrrol-1-yl)-2-aminoacetamide Hydrochloride] |  |  | 22.5 | 1.3 | Emax at 10 µM [3, 5]: 71% |
| NCC(=O)Nn1c(Cl)ccc1C(=O)c1ccccc1F [2-amino-N-[5-chloro-2-(2-fluorobenzoyl)-1H-pyrrol-1-yl]acetamide hydrobromide] |  |  | 6 | 1.7 | Emax at 30 µM ([3]; read-out: % OF MAXIMAL GLYCINE RESPONSE, concentration 30 μM): 65% |
| NCC(=O)Nn1cccc1C(=O)c1cccc(F)c1.O=C(O)/C=C/C(=O)O [2-amino-N-[2-(3-fluorobenzoyl)-1H-pyrrol-1-yl]acetamide fumarate] | +343% | +257% | 4.8 | 0.6 | % Change from Control (median latency to step-down) ([1]; 5 mg/kg): +457%; Emax at 10 µM [3, 6]: 76% |
